Measurements taken from patent US9963442B2, “Pyridones as herbicides” (E I DU PONT DE NEMOURS AND COMPANY, priority 2014, dated 2018).

Key:
Type in all cases: in vivo
[1] = system: Italian ryegrass (Lolium multiflorum); test: Test A postemergence application; conditions: approx. 10 days
Excerpt: (§1) Seeds of plant species selected from barnyardgrass (Echinochloa crus-galli), kochia (Kochia scoparia), ragweed (common ragweed, Ambrosia elatior), Italian ryegrass (Lolium multiflorum), giant foxtail (Setaria faberii), and pigweed (Amaranthus retroflexus) were planted into a blend of loam soil and sand and treated preemergence with a directed soil spray using test chemicals formulated in a non-phytotoxic solvent mixture which included a surfactant. At the same time, plants selected from these weed species and also wheat (Triticum aestivum), corn (Zea mays), blackgrass (Alopecurus myosuroides), and galium (catchweed bedstraw, Galium aparine) were planted in pots containing the same blend of loam soil and sand and treated with postemergence applications of test chemicals formulated in the same manner. Plants ranged in height from 2 to 10 cm and were in the one- to two-leaf stage for the postemergence treatment. Treated plants and untreated controls were maintained in a greenhouse for approximately 10 days, after which time all treated plants were compared to untreated controls and visually evaluated for injury. Plant response ratings, summarized in Table A, are based on a 0 to 100 scale where 0 is no effect and 100 is complete control. A dash (-) response means no test result.

[2] = system: wheat (Triticum aestivum); test: Test A postemergence application; conditions: approx. 10 days
Excerpt: as §1

[3] = system: giant foxtail (Setaria faberii); test: Test A postemergence application; conditions: approx. 10 days
Excerpt: as §1

kochia (Kochia scoparia) [4] = test: Test A postemergence application; conditions: approx. 10 days
Excerpt: as §1

[5] = system: barnyardgrass (Echinochloa crus-galli); test: Test A postemergence application; conditions: approx. 10 days
Excerpt: as §1

corn (Zea mays) = test: Test A postemergence application; conditions: approx. 10 days
Excerpt: as §1

[6] = system: ragweed (common ragweed, Ambrosia elatior); test: Test A postemergence application; conditions: approx. 10 days
Excerpt: as §1

[7] = system: blackgrass (Alopecurus myosuroides); test: Test A postemergence application; conditions: approx. 10 days
Excerpt: as §1

[8] = system: galium (catchweed bedstraw, Galium aparine); test: Test A postemergence application; conditions: approx. 10 days
Excerpt: as §1

[9] = system: pigweed (Amaranthus retroflexus); test: Test A postemergence application; conditions: approx. 10 days
Excerpt: as §1

[10] = system: Italian ryegrass (Lolium multiflorum); test: Test A preemergence, directed soil spray; conditions: approx. 10 days
Excerpt: as §1

[11] = system: giant foxtail (Setaria faberii); test: Test A preemergence, directed soil spray; conditions: approx. 10 days
Excerpt: as §1

kochia (Kochia scoparia) [12] = test: Test A preemergence, directed soil spray; conditions: approx. 10 days
Excerpt: as §1

[13] = system: barnyardgrass (Echinochloa crus-galli); test: Test A preemergence, directed soil spray; conditions: approx. 10 days
Excerpt: as §1

[14] = system: ragweed (common ragweed, Ambrosia elatior); test: Test A preemergence, directed soil spray; conditions: 125 g ai/ha, approx. 10 days
Excerpt: as §1

[15] = system: pigweed (Amaranthus retroflexus); test: Test A preemergence, directed soil spray; conditions: approx. 10 days
Excerpt: as §1

[16] = system: ducksalad (Heteranthera limosa); test: Test B flooded paddy test; parameters: key: 0 = no effect, 100 = complete control; conditions: Flood, 250 g ai/ha applied to paddy water at 2-leaf stage; visually evaluated after 13 to 15 days; scale 0 (no effect) to 100 (complete control)
Method: (§2) Plant species in the flooded paddy test selected from rice (Oryza sativa), sedge, umbrella (small-flower umbrella sedge, Cyperus difformis), ducksalad (Heteranthera limosa), and barnyardgrass (Echinochloa crus-galli) were grown to the 2-leaf stage for testing. At time of treatment, test pots were flooded to 3 cm above the soil surface, treated by application of test compounds directly to the paddy water, and then maintained at that water depth for the duration of the test. Treated plants and controls were maintained in a greenhouse for 13 to 15 days, after which time all species were compared to controls and visually evaluated. Plant response ratings, summarized in Table B, are based on a scale of 0 to 100 where 0 is no effect and 100 is complete control. A dash (-) response means no test result.

[17] = system: sedge, umbrella (small-flower umbrella sedge, Cyperus difformis); test: Test B flooded paddy test; parameters: key: 0 = no effect, 100 = complete control; conditions: Flood, 250 g ai/ha applied to paddy water at 2-leaf stage; visually evaluated after 13 to 15 days; scale 0 (no effect) to 100 (complete control)
Method: as §2

[18] = system: barnyardgrass (Echinochloa crus-galli); test: Test B flooded paddy test; parameters: key: 0 = no effect, 100 = complete control; conditions: Flood, 250 g ai/ha applied to paddy water at 2-leaf stage; visually evaluated after 13 to 15 days; scale 0 (no effect) to 100 (complete control)
Method: as §2

rice (Oryza sativa) = test: Test B flooded paddy test; parameters: key: 0 = no effect, 100 = complete control; conditions: Flood, 250 g ai/ha applied to paddy water at 2-leaf stage; visually evaluated after 13 to 15 days; scale 0 (no effect) to 100 (complete control)
Method: as §2

## O=c1cccc(Oc2ncc(Cl)cn2)n1-c1ccc(F)cn1 [Compound 9]
[1]; 31 g ai/ha
  Plant response rating (0 to 100 scale, 0 no effect, 100 complete control), Ryegrass, Italian: 0
[1]; 125 g ai/ha
  Plant response rating (0 to 100 scale, 0 no effect, 100 complete control), Ryegrass, Italian: 20
[2]; 31 g ai/ha
  Plant response rating (0 to 100 scale, 0 no effect, 100 complete control), Wheat: 0
[2]; 125 g ai/ha
  Plant response rating (0 to 100 scale, 0 no effect, 100 complete control), Wheat: 0
[3]; 31 g ai/ha
  Plant response rating (0 to 100 scale, 0 no effect, 100 complete control), Foxtail, Giant: 0
[3]; 125 g ai/ha
  Plant response rating (0 to 100 scale, 0 no effect, 100 complete control), Foxtail, Giant: 20
Kochia (Kochia scoparia) [4]; 31 g ai/ha
  Plant response rating (0 to 100 scale, 0 no effect, 100 complete control), Kochia: 70
Kochia (Kochia scoparia) [4]; 125 g ai/ha
  Plant response rating (0 to 100 scale, 0 no effect, 100 complete control), Kochia: 90
[5]; 31 g ai/ha
  Plant response rating (0 to 100 scale, 0 no effect, 100 complete control), Barnyardgrass: 0
[5]; 125 g ai/ha
  Plant response rating (0 to 100 scale, 0 no effect, 100 complete control), Barnyardgrass: 10
Corn (Zea mays); 31 g ai/ha
  Plant response rating (0 to 100 scale, 0 no effect, 100 complete control), Corn: 10
Corn (Zea mays); 125 g ai/ha
  Plant response rating (0 to 100 scale, 0 no effect, 100 complete control), Corn: 10
[6]; 31 g ai/ha
  Plant response rating (0 to 100 scale, 0 no effect, 100 complete control), Ragweed: 20
[6]; 125 g ai/ha
  Plant response rating (0 to 100 scale, 0 no effect, 100 complete control), Ragweed: 40
[7]; 31 g ai/ha
  Plant response rating (0 to 100 scale, 0 no effect, 100 complete control), Blackgrass: 0
[7]; 125 g ai/ha
  Plant response rating (0 to 100 scale, 0 no effect, 100 complete control), Blackgrass: 10
[8]; 31 g ai/ha
  Plant response rating (0 to 100 scale, 0 no effect, 100 complete control), Galium: 30
[8]; 125 g ai/ha
  Plant response rating (0 to 100 scale, 0 no effect, 100 complete control), Galium: 60
[9]; 31 g ai/ha
  Plant response rating (0 to 100 scale, 0 no effect, 100 complete control), Pigweed: 50
[9]; 125 g ai/ha
  Plant response rating (0 to 100 scale, 0 no effect, 100 complete control), Pigweed: 80
[10]; 31 g ai/ha
  Plant response rating (0 to 100 scale, 0 no effect, 100 complete control), Ryegrass, Italian: 0
[10]; 125 g ai/ha
  Plant response rating (0 to 100 scale, 0 no effect, 100 complete control), Ryegrass, Italian: 0
[11]; 31 g ai/ha
  Plant response rating (0 to 100 scale, 0 no effect, 100 complete control), Foxtail, Giant: 10
[11]; 125 g ai/ha
  Plant response rating (0 to 100 scale, 0 no effect, 100 complete control), Foxtail, Giant: 70
Kochia (Kochia scoparia) [12]; 31 g ai/ha
  Plant response rating (0 to 100 scale, 0 no effect, 100 complete control), Kochia: 20
Kochia (Kochia scoparia) [12]; 125 g ai/ha
  Plant response rating (0 to 100 scale, 0 no effect, 100 complete control), Kochia: 50
[13]; 31 g ai/ha
  Plant response rating (0 to 100 scale, 0 no effect, 100 complete control), Barnyardgrass: 0
[13]; 125 g ai/ha
  Plant response rating (0 to 100 scale, 0 no effect, 100 complete control), Barnyardgrass: 0
[14]
  Plant response rating (0 to 100 scale, 0 no effect, 100 complete control), Ragweed: 70
[15]; 31 g ai/ha
  Plant response rating (0 to 100 scale, 0 no effect, 100 complete control), Pigweed: 50
[15]; 125 g ai/ha
  Plant response rating (0 to 100 scale, 0 no effect, 100 complete control), Pigweed: 80
[16]
  Plant response rating, Ducksalad: 60
[17]
  Plant response rating, Sedge, Umbrella: 40
[18]
  Plant response rating, Barnyardgrass: 0
Rice (Oryza sativa)
  Plant response rating, Rice: 0
